Source: ChEMBL document CHEMBL1201862, “PubChem BioAssay data set” (2004)
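Method: 48-hour compound exposure of cells in 96-well plates, five concentrations, linear interpolation of endpoints. GI50: concentration for 50% inhibition of growth.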 Active and inactive are the calls of the source. Cut-off read from the data, not from the text of the source: active = GI50 up to about 1.1 µM and inactive = higher.

How the values were obtained:
Assay in all cases: growth of human tumour cells (NCI), 48 h
A549 = test system: A549
COLO 205 = test system: COLO 205
DU-145 = test system: DU-145
EKVX = test system: EKVX
HCT-15 = test system: HCT-15
HOP-62 = test system: HOP-62
K562 = test system: K562
M14 = test system: M14
MDA-MB-231 = test system: MDA-MB-231
MDA-MB-435 = test system: MDA-MB-435
MDA-N = test system: MDA-N
NCI-H226 = test system: NCI-H226
NCI-H522 = test system: NCI-H522
OVCAR-3 = test system: OVCAR-3
OVCAR-5 = test system: OVCAR-5
OVCAR-8 = test system: OVCAR-8
SR = test system: SR
UACC-257 = test system: UACC-257
UO-31 = test system: UO-31
A498 = test system: A498

Structure (SMILES) | GI50 (A549) | GI50 (COLO 205) | GI50 (DU-145) | GI50 (EKVX) | GI50 (HCT-15) [µM] | GI50 (HOP-62) | GI50 (K562) | GI50 (M14) | GI50 (MDA-MB-231) | GI50 (MDA-MB-435) | GI50 (MDA-N) | GI50 (NCI-H226) | GI50 (NCI-H522) | GI50 (OVCAR-3) | GI50 (OVCAR-5) | GI50 (OVCAR-8) | GI50 (SR) | GI50 (UACC-257) | GI50 (UO-31) | GI50 (A498)
C=C1C[C@H](O)[C@H](Br)C(C)(C)C12CCC(C)(Cl)C(Br)C2 (some centres undefined) | 0.566 µM (active) | 1.02 µM (active) | 4.84 µM (inactive) | 0.286 µM (active) | 7.45 | 2.26 µM (inactive) | 2.44 µM (inactive) | 2.36 µM (inactive) | 2.72 µM (inactive) | 2.3 µM (inactive) | 1.39 µM (inactive) | 2.27 µM (inactive) | 3.83 µM (inactive) | 4.3 µM (inactive) | 0.762 µM (active) | 1.23 µM (inactive) | 2.19 µM (inactive) | 0.526 µM (active) | 7.93 µM (inactive) | –
Cc1sc2nc3n(sc4nc5sc(C)c(C)c5c(=O)n43)c(=O)c2c1C | > 100 µM (inactive) | > 100 µM (inactive) | > 100 µM (inactive) | 30.3 µM (inactive) | > 100 | – | 93.8 µM (inactive) | > 100 µM (inactive) | 80.5 µM (inactive) | > 100 µM (inactive) | > 100 µM (inactive) | > 100 µM (inactive) | 16.4 µM (inactive) | > 100 µM (inactive) | > 100 µM (inactive) | > 100 µM (inactive) | 75.5 µM (inactive) | > 100 µM (inactive) | > 100 µM (inactive) | –
CCOC(=O)c1nc2ccccc2nc1Oc1ccc(C(=O)OC)cc1 | > 100 µM (inactive) | > 100 µM (inactive) | > 100 µM (inactive) | > 100 µM (inactive) | > 100 | > 100 µM (inactive) | > 100 µM (inactive) | > 100 µM (inactive) | > 100 µM (inactive) | > 100 µM (inactive) | > 100 µM (inactive) | > 100 µM (inactive) | – | > 100 µM (inactive) | > 100 µM (inactive) | > 100 µM (inactive) | – | > 100 µM (inactive) | > 100 µM (inactive) | > 100 µM (inactive)
C#CCn1c(=O)c(C)cn(/C(=C/C(=O)OCC)C(=O)OCC)c1=O | 16.2 µM (inactive) | 2.38 µM (inactive) | 10.4 µM (inactive) | 5.87 µM (inactive) | 1.21 | 15.8 µM (inactive) | 2.84 µM (inactive) | 2.92 µM (inactive) | 15.3 µM (inactive) | 6.35 µM (inactive) | 15 µM (inactive) | 2.19 µM (inactive) | – | 7.16 µM (inactive) | 3.64 µM (inactive) | 2.49 µM (inactive) | 3.5 µM (inactive) | 14.4 µM (inactive) | 11.3 µM (inactive) | 16 µM (inactive)
Cc1nc2cccc(F)c2c(=O)n1-c1nnc(C2CC2)s1 | > 10 µM (inactive) | > 10 µM (inactive) | > 10 µM (inactive) | > 10 µM (inactive) | > 10 | > 10 µM (inactive) | > 10 µM (inactive) | > 10 µM (inactive) | > 10 µM (inactive) | > 10 µM (inactive) | > 10 µM (inactive) | > 10 µM (inactive) | > 10 µM (inactive) | > 10 µM (inactive) | > 10 µM (inactive) | > 10 µM (inactive) | > 10 µM (inactive) | > 10 µM (inactive) | > 10 µM (inactive) | –
O=C1CN(c2cccc(Cl)c2)C(=O)CN1NCNN1CC(=O)N(c2cccc(Cl)c2)CC1=O | > 100 µM (inactive) | > 100 µM (inactive) | > 100 µM (inactive) | > 100 µM (inactive) | > 100 | > 100 µM (inactive) | – | > 100 µM (inactive) | – | > 100 µM (inactive) | > 100 µM (inactive) | – | > 100 µM (inactive) | > 100 µM (inactive) | > 100 µM (inactive) | > 100 µM (inactive) | > 100 µM (inactive) | > 100 µM (inactive) | > 100 µM (inactive) | > 100 µM (inactive)
COc1cc(/C=C2\N=C(c3ccccc3)N(c3nc4ccc(Sc5ccccc5)cc4[nH]3)C2=O)ccc1O | 30.5 µM (inactive) | 18 µM (inactive) | 35.7 µM (inactive) | 31.5 µM (inactive) | 21.9 | 42.7 µM (inactive) | 11.7 µM (inactive) | 15.6 µM (inactive) | 25.6 µM (inactive) | 3.56 µM (inactive) | 5.13 µM (inactive) | – | 18.8 µM (inactive) | 30.5 µM (inactive) | 26.1 µM (inactive) | 27.6 µM (inactive) | – | 18 µM (inactive) | 28.7 µM (inactive) | 21.3 µM (inactive)
Cc1ccc(S(=O)(=O)NC(=O)NC(C(=O)O)C(C)C)cc1 (centres undefined) | > 100 µM (inactive) | > 100 µM (inactive) | > 100 µM (inactive) | – | > 100 | > 100 µM (inactive) | > 100 µM (inactive) | > 100 µM (inactive) | > 100 µM (inactive) | – | > 100 µM (inactive) | – | > 100 µM (inactive) | – | > 100 µM (inactive) | > 100 µM (inactive) | > 100 µM (inactive) | > 100 µM (inactive) | > 100 µM (inactive) | –
CC(=O)OCC1OC(O/C=C(\CN=[N+]=[N-])C(C)=O)C(OC(C)=O)C(OC(C)=O)C1OC(C)=O (centres undefined) | 20.7 µM (inactive) | 1.74 µM (inactive) | – | 14.7 µM (inactive) | 3.94 | 25.6 µM (inactive) | 5.02 µM (inactive) | 8 µM (inactive) | 12.7 µM (inactive) | 4.57 µM (inactive) | 8.85 µM (inactive) | – | 1.79 µM (inactive) | 8.59 µM (inactive) | 16.5 µM (inactive) | 6.01 µM (inactive) | 2.37 µM (inactive) | 3.56 µM (inactive) | 8.28 µM (inactive) | 20.3 µM (inactive)
NC1=NN(c2ccccc2)C2(c3ccncc3C(=O)O)C1C(N)=NN2c1ccccc1 (centres undefined) | > 100 µM (inactive) | > 100 µM (inactive) | > 100 µM (inactive) | > 100 µM (inactive) | > 100 | – | > 100 µM (inactive) | > 100 µM (inactive) | > 100 µM (inactive) | > 100 µM (inactive) | > 100 µM (inactive) | > 100 µM (inactive) | > 100 µM (inactive) | > 100 µM (inactive) | > 100 µM (inactive) | > 100 µM (inactive) | – | > 100 µM (inactive) | > 100 µM (inactive) | > 100 µM (inactive)
O=C(Oc1c(Cl)cc(C2(c3cc(Cl)c(OC(=O)c4ccccc4)c(Cl)c3)CCCCC2)cc1Cl)c1ccccc1 | 12.3 µM (inactive) | 5.78 µM (inactive) | 12.2 µM (inactive) | 11.1 µM (inactive) | 11.9 | 12.4 µM (inactive) | 7.96 µM (inactive) | 14.5 µM (inactive) | 13.7 µM (inactive) | 10.1 µM (inactive) | 12.7 µM (inactive) | 16.3 µM (inactive) | 13.7 µM (inactive) | 10.9 µM (inactive) | 14 µM (inactive) | 15.9 µM (inactive) | – | 12.7 µM (inactive) | 18.5 µM (inactive) | 11.4 µM (inactive)
CC(C)=CC[C@]12CCN[C@H]1N(S(=O)(=O)c1ccccc1)c1ccccc12 | 19.9 µM (inactive) | 15.1 µM (inactive) | > 100 µM (inactive) | 8.17 µM (inactive) | 15.6 | 15.3 µM (inactive) | 16.7 µM (inactive) | – | 19 µM (inactive) | 16.3 µM (inactive) | 15.2 µM (inactive) | 14.9 µM (inactive) | 13.9 µM (inactive) | 16.9 µM (inactive) | > 100 µM (inactive) | 16.8 µM (inactive) | 18.3 µM (inactive) | 17.6 µM (inactive) | 13.8 µM (inactive) | –
COc1cc(C2c3cc4c(cc3[C@@H](Nc3ccccc3)C3COC[C@H]23)OCO4)cc(OC)c1O (some centres undefined) | 0.35 µM (active) | 3.28 µM (inactive) | – | 15.4 µM (inactive) | 1.12 | 1.48 µM (inactive) | 1.8 µM (inactive) | 2.59 µM (inactive) | 1.64 µM (inactive) | 7.13 µM (inactive) | 7.35 µM (inactive) | – | 2.2 µM (inactive) | – | 2.36 µM (inactive) | 2.82 µM (inactive) | 0.465 µM (active) | 14.6 µM (inactive) | 1.15 µM (inactive) | –
Cn1c(=S)[nH]c(N)c(Cc2ccccc2)c1=O | > 100 µM (inactive) | > 100 µM (inactive) | > 100 µM (inactive) | 92.5 µM (inactive) | 42.9 | > 100 µM (inactive) | 78.5 µM (inactive) | > 100 µM (inactive) | > 100 µM (inactive) | > 100 µM (inactive) | > 100 µM (inactive) | 44.3 µM (inactive) | – | > 100 µM (inactive) | > 100 µM (inactive) | 93.8 µM (inactive) | 67.5 µM (inactive) | > 100 µM (inactive) | – | 32.1 µM (inactive)
O=C(Nc1ncc([N+](=O)[O-])s1)c1ccccc1O [TIZOXANIDE] | 19.3 µM (inactive) | 15.2 µM (inactive) | 21 µM (inactive) | 16.5 µM (inactive) | 19.1 | 20 µM (inactive) | 28.2 µM (inactive) | 20 µM (inactive) | 23.5 µM (inactive) | 22.6 µM (inactive) | 27 µM (inactive) | 7.55 µM (inactive) | 3.13 µM (inactive) | 6.84 µM (inactive) | 32.9 µM (inactive) | 17.9 µM (inactive) | – | 20.7 µM (inactive) | 23.7 µM (inactive) | 8.75 µM (inactive)
